# Assay: Effective concentration required to stimulate Adenylate cyclase
compound,measurement,value
Cc1ccc([C@H]2CNCCc3cc(O)c(O)cc32)cc1,EC50,210 nM

# From BindingDB's records for doi:10.1021/jm00170a025 (Royal Danish School of Pharmacy, 1990)
